From US11141413B2, “Method of treating renal cell carcinoma using N-(4-(6,7-dimethoxyquinolin-4-yloxy)phenyl)-N′-(4-fluorophenyl)cyclopropane-1,1-dicarboxamide, (2S)-hydroxybutanedioate” (Exelixis, Inc., priority 2016, dated 2021)

Test system: patients with advanced renal cell carcinoma
Conditions: in vivo
Method: Treatment modifications, including interruptions and dose reductions, were allowed to manage adverse events. […] Patients were allowed to continue study treatment beyond radiographic progression at the discretion of the investigator. On-study crossover between treatment groups was not permitted. Safety evaluations, including physical examination, vital signs, and laboratory assessments, were conducted every 2 weeks for the first 8 weeks and then every 4 weeks thereafter. ECG assessments were performed every 4 weeks for the first 8 weeks and then every 12 weeks. A safety follow-up visit was scheduled 30 days after treatment discontinuation. Adverse events were assessed by investigators and graded according to CTCAE version 4.0.
Safety analyses were limited to patients who received any amount of study treatment.

CO[C@H]1C[C@@H]2CC[C@@H](C)[C@@](O)(O2)C(=O)C(=O)N2CCCC[C@H]2C(=O)O[C@H]([C@H](C)C[C@@H]2CC[C@@H](OCCO)[C@H](OC)C2)CC(=O)[C@H](C)/C=C(\C)[C@@H](O)[C@@H](OC)C(=O)[C@H](C)C[C@H](C)/C=C/C=C/C=C/1C [everolimus]
ALP increased, All Grades (human): 29%
ALP increased, Grade 3-4 (human): 1%
ALT increased, All Grades (human): 32%
ALT increased, Grade 3-4 (human): <1%
AST increased, All Grades (human): 40%
AST increased, Grade 3-4 (human): <1%
Abdominal pain, All Grades (human): 13%
Abdominal pain, Grade 1-2 (human): 27 (8) n (%)
Abdominal pain, Grade 3 (human): 5 (2) n (%)
Abdominal pain, Grade 3-4 (human): 2%
Abdominal pain, Grade 4 (human): 0 n (%)
Absolute neutrophil count decreased, All Grades (human): 17%
Absolute neutrophil count decreased, Grade 3-4 (human): <1%
Adverse reactions led to study treatment being held (human): 59%
Adverse reactions led to study treatment discontinuation (human): 10%
Alanine aminotransferase increased, Grade 1-2 (human): 20 (6) n (%)
Alanine aminotransferase increased, Grade 3 (human): 1 (<1) n (%)
Alanine aminotransferase increased, Grade 4 (human): 0 n (%)
Anemia, All Grades (human): 38%
Anemia, Grade 1-2 (human): 73 (23) n (%)
Anemia, Grade 3 (human): 53 (17) n (%)
Anemia, Grade 3-4 (human): 16%
Anemia, Grade 4 (human): 0 n (%)
Anemia, all grades (human): 126 (39%) n (%)
Anemia, grade 3 or 4 (human): 53 [17%] n [%]
Any AE, Grade 1-2 (human): 103 (32) n (%)
Any AE, Grade 3 (human): 167 (52) n (%)
Any AE, Grade 4 (human): 26 (8) n (%)
Arthralgia, All Grades (human): 14%
Arthralgia, Grade 1-2 (human): 46 (14) n (%)
Arthralgia, Grade 3 (human): 4 (1) n (%)
Arthralgia, Grade 3-4 (human): 1%
Arthralgia, Grade 4 (human): 0 n (%)
Aspartate aminotransferase increased, Grade 1-2 (human): 19 (6) n (%)
Aspartate aminotransferase increased, Grade 3 (human): 1 (<1) n (%)
Aspartate aminotransferase increased, Grade 4 (human): 0 n (%)
Asthenia, All Grades (human): 16%
Asthenia, Grade 1-2 (human): 46 (14) n (%)
Asthenia, Grade 3 (human): 8 (3) n (%)
Asthenia, Grade 3-4 (human): 2%
Asthenia, Grade 4 (human): 0 n (%)
Back pain, Grade 1-2 (human): 41 (13) n (%)
Back pain, Grade 3 (human): 7 (2) n (%)
Back pain, Grade 4 (human): 0 n (%)
Blood creatinine increased, Grade 1-2 (human): 39 (12) n (%)
Blood creatinine increased, Grade 3 (human): 0 n (%)
Blood creatinine increased, Grade 4 (human): 0 n (%)
Constipation, All Grades (human): 19%
Constipation, Grade 1-2 (human): 64 (20) n (%)
Constipation, Grade 3 (human): 1 (<1) n (%)
Constipation, Grade 3-4 (human): <1%
Constipation, Grade 4 (human): 0 n (%)
Cough, All Grades (human): 33%
Cough, Grade 1-2 (human): 107 (33) n (%)
Cough, Grade 3 (human): 3 (<1) n (%)
Cough, Grade 3-4 (human): <1%
Cough, Grade 4 (human): 0 n (%)
Creatinine increased, All Grades (human): 71%
Creatinine increased, Grade 3-4 (human): 0%
Decreased appetite, All Grades (human): 34%
Decreased appetite, Grade 1-2 (human): 111 (35) n (%)
Decreased appetite, Grade 3 (human): 3 (<1) n (%)
Decreased appetite, Grade 3-4 (human): <1%
Decreased appetite, Grade 4 (human): 0 n (%)
Decreased appetite, all grades (human): 114 (3-5%) n (%)
Diarrhea, All Grades (human): 28%
Diarrhea, Grade 1-2 (human): 85 (26) n (%)
Diarrhea, Grade 3 (human): 7 (2) n (%)
Diarrhea, Grade 3-4 (human): 2%
Diarrhea, Grade 4 (human): 0 n (%)
Discontinuation due to a primary reason of AE (excluding disease progression) (human): 10%
Dizziness, All Grades (human): 7%
Dizziness, Grade 1-2 (human): 21 (7) n (%)
Dizziness, Grade 3 (human): 0 n (%)
Dizziness, Grade 3-4 (human): 0%
Dizziness, Grade 4 (human): 0 n (%)
Dry skin, All Grades (human): 10%
Dry skin, Grade 1-2 (human): 35 (11) n (%)
Dry skin, Grade 3 (human): 0 n (%)
Dry skin, Grade 3-4 (human): 0%
Dry skin, Grade 4 (human): 0 n (%)
Dysgeusia, All Grades (human): 9%
Dysgeusia, Grade 1-2 (human): 30 (9) n (%)
Dysgeusia, Grade 3 (human): 0 n (%)
Dysgeusia, Grade 3-4 (human): 0%
Dysgeusia, Grade 4 (human): 0 n (%)
Dyspepsia, All Grades (human): 5%
Dyspepsia, Grade 1-2 (human): 15 (5) n (%)
Dyspepsia, Grade 3 (human): 0 n (%)
Dyspepsia, Grade 3-4 (human): 0%
Dyspepsia, Grade 4 (human): 0 n (%)
Dysphonia, All Grades (human): 4%
Dysphonia, Grade 1-2 (human): 16 (5) n (%)
Dysphonia, Grade 3 (human): 0 n (%)
Dysphonia, Grade 3-4 (human): 0%
Dysphonia, Grade 4 (human): 0 n (%)
Dyspnea, All Grades (human): 29%
Dyspnea, Grade 3-4 (human): 4%
Dyspnoea, Grade 1-2 (human): 82 (26) n (%)
Dyspnoea, Grade 3 (human): 11 (3) n (%)
Dyspnoea, Grade 4 (human): 3 (<1) n (%)
Edema peripheral, Grade 1-2 (human): 70 (22) n (%)
Edema peripheral, Grade 3 (human): 6 (2) n (%)
Edema peripheral, Grade 4 (human): 0 n (%)
Epistaxis, Grade 1-2 (human): 46 (14) n (%)
Epistaxis, Grade 3 (human): 0 n (%)
Epistaxis, Grade 4 (human): 0 n (%)
Events of arterial thromboembolism (human): 0.3%
Fatigue, All Grades (human): 47%
Fatigue, Grade 1-2 (human): 130 (40) n (%)
Fatigue, Grade 3 (human): 24 (8) n (%)
Fatigue, Grade 3-4 (human): 7%
Fatigue, Grade 4 (human): 0 n (%)
Fatigue, all grades (human): 154 (48%) n (%)
Fatigue, grade 3 or 4 (human): 24 [7%] n [%]
Fistulas (human): 0%
Flatulence, Grade 1-2 (human): 7 (2) n (%)
Flatulence, Grade 3 (human): 0 n (%)
Flatulence, Grade 4 (human): 0 n (%)
GGT increased, All Grades (human): 43%
GGT increased, Grade 3-4 (human): 9%
Gastrointestinal (GI) perforations (human): 0.6%
Grade 3 and 4 adverse events: Diarrhea, % (human): 3%
Grade 3 or 4 Adverse Events: Diarrhea, % (human): (3) %
Grade 3 or 4 Adverse Events: Hypokalaemia, % (human): (2) %
Grade 3 or 4 Adverse Events: PPES, % (human): (1) %
Grade 3 or 4 adverse events (human): 193 (60%) n (%)
Grade 5 adverse events regardless of causality (human): 7.8%
Headache, All Grades (human): 12%
Headache, Grade 1-2 (human): 42 (13) n (%)
Headache, Grade 3 (human): 1 (<1) n (%)
Headache, Grade 3-4 (human): <1%
Headache, Grade 4 (human): 0 n (%)
Hemoglobin decreased, All Grades (human): 71%
Hemoglobin decreased, Grade 3-4 (human): 17%
Hyperglycemia, All Grades (human): 59%
Hyperglycemia, Grade 1-2 (human): 46 (14) n (%)
Hyperglycemia, Grade 3 (human): 16 (5) n (%)
Hyperglycemia, Grade 3-4 (human): 8%
Hyperglycemia, Grade 4 (human): 0 n (%)
Hyperglycemia, grade 3 or 4 (human): 16 [5%] n [%]
Hypertension, All Grades (human): 8%
Hypertension, Grade 1-2 (human): 14 (4) n (%)
Hypertension, Grade 3 (human): 12 (4) n (%)
Hypertension, Grade 3-4 (human): 3%
Hypertension, Grade 4 (human): 0 n (%)
Hypertriglyceridemia, Grade 1-2 (human): 31 (10) n (%)
Hypertriglyceridemia, Grade 3 (human): 7 (2) n (%)
Hypertriglyceridemia, Grade 4 (human): 3 (<1) n (%)
Hypoalbuminemia, All Grades (human): 28%
Hypoalbuminemia, Grade 3-4 (human): <1%
Hypomagnesaemia, Grade 1-2 (human): 5 (2) n (%)
Hypomagnesaemia, Grade 3 (human): 0 n (%)
Hypomagnesaemia, Grade 4 (human): 0 n (%)
Hypomagnesemia, All Grades (human): 4%
Hypomagnesemia, Grade 3-4 (human): <1%
Hyponatremia, All Grades (human): 26%
Hyponatremia, Grade 3-4 (human): 6%
Hypophosphatemia, All Grades (human): 36%
Hypophosphatemia, Grade 3-4 (human): 5%
Hypothyroidism, All Grades (human): <1%
Hypothyroidism, Grade 1-2 (human): 1 (<1) n (%)
Hypothyroidism, Grade 3 (human): 1 (<1) n (%)
Hypothyroidism, Grade 3-4 (human): <1%
Hypothyroidism, Grade 4 (human): 0 n (%)
Incidence of Grade ≥3 hemorrhagic events (human): 1.6%
Insomnia, Grade 1-2 (human): 33 (10) n (%)
Insomnia, Grade 3 (human): 1 (<1) n (%)
Insomnia, Grade 4 (human): 0 n (%)
Lymphocytes decreased, All Grades (human): 39%
Lymphocytes decreased, Grade 3-4 (human): 12%
Mucosal inflammation, All Grades (human): 23%
Mucosal inflammation, Grade 1-2 (human): 64 (20) n (%)
Mucosal inflammation, Grade 3 (human): 10 (3) n (%)
Mucosal inflammation, Grade 3-4 (human): 3%
Mucosal inflammation, Grade 4 (human): 1 (<1) n (%)
Muscle spasms, All Grades (human): 5%
Muscle spasms, Grade 1-2 (human): 17 (5) n (%)
Muscle spasms, Grade 3 (human): 0 n (%)
Muscle spasms, Grade 3-4 (human): 0%
Muscle spasms, Grade 4 (human): 0 n (%)
Nausea, All Grades (human): 28%
Nausea, Grade 1-2 (human): 92 (29) n (%)
Nausea, Grade 3 (human): 1 (<1) n (%)
Nausea, Grade 3-4 (human): <1%
Nausea, Grade 4 (human): 0 n (%)
Overall incidence of adverse events regardless of causality (human): > 99%
Pain in extremity, All Grades (human): 8%
Pain in extremity, Grade 1-2 (human): 31 (10) n (%)
Pain in extremity, Grade 3 (human): 1 (<1) n (%)
Pain in extremity, Grade 3-4 (human): <1%
Pain in extremity, Grade 4 (human): 0 n (%)
Palmar-plantar erythrodysaesthesia syndrome, Grade 1-2 (human): 16 (5) n (%)
Palmar-plantar erythrodysaesthesia syndrome, Grade 3 (human): 3 (<1) n (%)
Palmar-plantar erythrodysaesthesia syndrome, Grade 4 (human): 0 n (%)
Palmar-plantar erythrodysesthesia syndrome, All Grades (human): 6%
Palmar-plantar erythrodysesthesia syndrome, Grade 3-4 (human): <1%
Patients with dose reduced (human): 24%
Patients with dose reductions (human): 25%
Platelets decreased, All Grades (human): 27%
Platelets decreased, Grade 3-4 (human): <1%
Proteinuria, All Grades (human): 9%
Proteinuria, Grade 1-2 (human): 28 (9) n (%)
Proteinuria, Grade 3 (human): 2 (<1) n (%)
Proteinuria, Grade 3-4 (human): <1%
Proteinuria, Grade 4 (human): 0 n (%)
Pruritus, Grade 1-2 (human): 48 (15) n (%)
Pruritus, Grade 3 (human): 1 (<1) n (%)
Pruritus, Grade 4 (human): 0 n (%)
Pulmonary embolism (human): 0.3%
Pyrexia, Grade 1-2 (human): 57 (18) n (%)
Pyrexia, Grade 3 (human): 2 (<1) n (%)
Pyrexia, Grade 4 (human): 0 n (%)
Rash, All Grades (human): 43%
Rash, Grade 1-2 (human): 92 (29) n (%)
Rash, Grade 3 (human): 2 (<1) n (%)
Rash, Grade 3-4 (human): <1%
Rash, Grade 4 (human): 0 n (%)
Serious adverse events ≥grade 3 (human): 129 (40%) n (%)
Stomatitis, All Grades (human): 24%
Stomatitis, Grade 1-2 (human): 71 (22) n (%)
Stomatitis, Grade 3 (human): 7 (2) n (%)
Stomatitis, Grade 3-4 (human): 2%
Stomatitis, Grade 4 (human): 0 n (%)
Study treatment discontinuation due to diarrhea (human): 0.9%
Treatment discontinuation due to an adverse event not related to disease progression (human): 10%
Treatment-emergent hypertension (human): 7.1%
Treatment-emergent hypertension, Grade ≥3 (human): 3.1%
Triglycerides increased, All Grades (human): 73%
Triglycerides increased, Grade 3-4 (human): 13%
Venous thromboembolism (human): 2.5%
Vomiting, All Grades (human): 14%
Vomiting, Grade 1-2 (human): 44 (14) n (%)
Vomiting, Grade 3 (human): 3 (<1) n (%)
Vomiting, Grade 3-4 (human): <1%
Vomiting, Grade 4 (human): 0 n (%)
Weight decreased, All Grades (human): 12%
Weight decreased, Grade 1-2 (human): 42(13) n (%)
Weight decreased, Grade 3 (human): 0 n (%)
Weight decreased, Grade 3-4 (human): 0%
Weight decreased, Grade 4 (human): 0 n (%)
White blood cells decreased, All Grades (human): 31%
White blood cells decreased, Grade 3-4 (human): <1%
Grade 5 adverse events assessed as treatment-related: two
